Patent US20250093329A1, “SCREENING OF COMPOUNDS” (THE UNIVERSITY OF TULSA, priority 2022, published 2025)

Legend:
Format in all cases: cell-based
each cell line tested = experiment: ATP levels by CellTiter-Glo, all cell lines of Table 1 taken together; settings: 100 μM compound with 2-DG, Table 1 cell lines
Text: A wide variety of ATP luminescing detection reagents are available commercially. So long as the reagent produces a luminescence in the presence of ATP, the reagent will be suitable for use in the present method. Suitable reagents include but are not limited to any ATP dependent luciferase such as but not limited to firefly luciferase, other modified luciferase based reagents, i.e. luciferase derivatives. According to the rapid method for determining the anti-cancer activity of a compound, a sample of living cells is distributed across a number of testing wells. Typically, 96-well plates are used; however, the number of wells is not critical to the current method. When using a 96-well plate the number of living cells will commonly be about 20,000. […] The sample wells contain a cell growth medium to promote cell health and growth and an additive to prevent bacterial contamination of the wells. One common example of the cell growth medium is DMEM with 10% FBS as described above. One example of the additive to prevent bacterial contamination is a solution of penicillin G and streptomycin referred to commonly as Pen-Strep. The Pen-Strep solution typically contains 5000 units of penicillin G and 5000 micrograms of streptomycin. Thus, the rapid determination of anti-cancer compounds can be carried out using the following method. • The desired number of cells are distributed in a 96-well plate containing 100 μL DMEM plus 10% FBS with optional Pen-Strep. • After 24 hours, cells are treated with the compound of interest or a 5% solution of dimethyl sulfoxide (DMSO) in water as a control. • The time period for exposure to the compound of interest and the DMSO control will vary depending on the luminescing detection reagent. However, when using a commercially available reagent such as resazurin (CellTiter Blue commercially available from Promega) or luciferase or a luciferase derivative (CellTiter Glo commercially available from Promega) the time period can be readily determined with reference to literature from the commercial source. Other luminescing detection agents can also be used with minimal experimentation to determine the desired compound exposure time. • Upon completion of the time period for exposure to the compound of interest or the DMSO, 10 μL of the luminescing detection reagent is added and the cells are lysed by a detergent added along with the luminescing detection reagent. • When the reagent is resazurin, as found in CellTiter-Blue the time period for exposure to the compound of interest and the DMSO will be about 24 hours. • When the reagent is luciferase or a luciferase derivative as found in CellTiter-Glo the time period for exposure to the compound of interest and the DMSO will be about 30 minutes to four hours. • The luminescing detection reagent is added over a period of time. • When using resazurin, the time period for the addition of the 10 μl volume takes place over a period of about one to four hours. • When using luciferase or a luciferase derivative, the time period is about 3 minutes to about 7 minutes, typically about 5 minutes. • During the time period of addition of the luminescing detection reagent the resulting luminescence is measured using conventional methods and devices. […] If the compound of interest deactivates the cell, then the cell produces less or no ATP. As a result, the cells in the well treated with the compound of interest will have a lower luminescence value as compared to the cells in wells treated with DMSO. • The value for the cells treated with the compound of interest is reported as a “percent of control” (POC) value. The determination of POC is calculated by dividing the averaged response from duplicate wells containing the cells as treated with the compound of interest by the average response of duplicate control wells which contain only cells and DMSO (in other words, a blank control experiment). […]

NCI-H196 = experiment: Cytotoxicity testing, CellTiter-Blue assay, 24 hour (FIG. 3); settings: 100 μM, 24 hour compound incubation
Description: (§1) The cytotoxicity tests were carried out in the following manner. Living cells are known to convert resazurin to the fluorescent compound resorufin. Test systems which rely upon this reaction are commercially available. One such test is known at the Cell Titer Blue Cell Viability test assay from Promega. Cell cultures for each of the identified cancer lines were obtained from ATCC and maintained in Dulbecco's Modified Eagle Medium (DMEM) supplemented with 10% fetal bovine serum (FBS) and pen/strep. As known to those skilled in the art, DMEM typically includes the components identified below.
(§2) The test method provides for incubating the cell cultures at temperatures which correspond to the range of body temperatures experienced by the patient from which the cancer cells were obtained. Typically, incubation temperatures will be between the temperatures of 36.1° C. and 37.2° C. In most cases incubation will occur at 37° C. Additionally, the cell cultures are kept under an atmosphere which mimics cell conditions of the tumor within the patient's body. In most cases, the tumor microenvironment (TME) is characterized by hypoxia (low oxygen) and may also be characterized by hypercapnia (increased CO2). Hypercapnia results from decreased blood flow which limits CO2 elimination. Restricted CO2 elimination leads to increased HCO3^− conversion to CO2 in order to neutralize lactate as altered tumor cell metabolism produces more CO2 than normal. Normal tissue averages about 5% oxygen with oxygen ranges from about 3% to 7.4%. […] In the case of CO2, normocapnic is around 5% CO2, while hypercapnic can rise to 10% CO2. Therefore, to mimic the environment of the tumor the method utilizes an incubator designed to provide the optimal gaseous environment corresponding to that of the tumor. Thus, the incubator will be capable of maintaining an atmosphere having an oxygen content in the range of […] and a CO2 in the range of 1% to 10%.
(§3) After allowing for proliferation of the cells, the cells were distributed across a plurality of test wells containing from 100 μL DMEM plus 10% FBS and allowed to attach to the surface of the test wells. Typically, the time for attachment will require about 12 hours to about 18 hours. […] Following treatment of the cells with the N-benzyl sulfonamide or control, the toxicity of the compound to the cells will be determined by addition of a luminescing agent. […] Subsequently, the fluorescence of resazurin is measured by excitation at 560 nm and recording the emission at 590 nm within an instrument configured to measure fluorescence intensity. Two commercially available systems are the BioTek Cytation 5 plate reader and the Promega Glomax Multi+detection system. […]

H293 = experiment: as above; settings: 100 μM, 24 hour compound incubation
Description: as §1, §2, §3

[1] = system: HEK293 (kidney cancer) cells; experiment: Traditional versus rapid screening (FIG. 15); settings: DMEM, CellTiter-Glo 1 hr, with or without 2DG, versus CellTiter-Blue/CellTiter-Glo 24 hr
Text: FIG. 15 provides a comparison of traditional cytotoxicity testing the improved testing method described herein using HEK293 cells (kidney cancer), DMEM media, and the library sulfonamide compounds 1-30 found in FIGS. 1A-1C.
When used to identify compounds for specific patients, the following steps will be carried out: • Individualized patient cells will be acquired from a tumor biopsy and cultured/grown in patient blood serum and/or plasma. (In most instances the cells will be obtained using a needle biopsy; i.e. fine needle aspiration biopsy. Optionally, the cells may be obtained from resected tumor (i.e. excisional biopsy, which is an attempt at complete tumor removal), and/or a core biopsy; (i.e. removal of part of the tumor). Alternatively, cells may be obtained from blood draw samples, which would contain leukemia, lymphoma and myeloma cells.) • The cells (as few as 100 cells per experiment) will be screened directly in patient blood serum and/or plasma in the absence or presence of glycolysis inhibitor, 2-deoxyglucose (2DG) using a rapid (1-2 hr) screening assay (CellTiter-Glo, or “CTG”). • NOTE: while the discussion herein focuses on CTG, other assays suitable for measuring changes in ATP levels will perform equally as well. […] DMEM contains glucose, but L15 has substituted glucose with galactose. […]

SMILES | effectiveness across the cell lines, with 2-DG (each cell line tested) | also measured
Cc1ccc(S(=O)(=O)NCc2c[nH]c3ccccc23)cc1 [Compound 1, N-[(1H-indol-3-yl)methyl]-4-methylbenzenesulfonamide] | little effect | –
Cc1ccc(S(=O)(=O)NCc2ccc3ncccc3c2)cc1 [Compound 22, 4-methyl-N-(quinolin-6-ylmethyl)benzenesulfonamide] | little effect | –
CC(=O)n1cc(CNS(=O)(=O)c2ccc(Cl)cc2)c2ccccc21 [Compound 4, N-[(1-acetyl-1H-indole-3-yl)methyl]-4-chlorobenzenesulfonamide] | little effect | –
Cc1ccc(S(=O)(=O)NCc2c[nH]c3cccc(Br)c23)cc1 [Compound 5, N-[(4-bromo-1H-indol-3-yl)methyl]-4-methylbenzenesulfonamide] | – | effectiveness, percent reduction in cell viability (FIG. 3) (NCI-H196): effectiveness; effectiveness, percent reduction in cell viability (FIG. 3) (H293): effective; sensitivity of rapid assays versus traditional methods (FIG. 15) [1]: enhanced sensitivity
Cc1cccc2c(CNS(=O)(=O)c3ccccc3)c[nH]c12 [Compound 6, N-[(7-methyl-1H-indol-3-yl)methyl]benzenesulfonamide] | – | effectiveness, percent reduction in cell viability (FIG. 3) (H293): effective
O=S(=O)(NCc1c[nH]c2ccccc12)c1ccccc1 [Compound 3, N-[(1H-indol-3-yl)methyl]benzenesulfonamide] | little effect | –
COc1ccc(S(=O)(=O)NCc2c[nH]c3ccccc23)cc1 [Compound 23, N-(1H-indol-3-ylmethyl)-4-methoxybenzenesulfonamide] | little effect | –
